Experimental data: US20130012479A1, “POLYMORPHS OF 6-(PIPERIDIN-4-YLOXY)-2H-ISOQUINOLIN-1-ONE HYDROCHLORIDE” (SANOFI, priority 2011, published 2013)
Entries after “also recorded” stand apart in the source; their conditions may differ. Counter-ions that a name gives are not always drawn. Each block holds one compound with its values, some of them ahead of it.

What was measured:
Type in all cases: physicochemical
[1] = Stability of the solvate outside the mother liquor; settings: in the presence of humidity starts to transform to the hydrate
Excerpt: Thus, a further aspect of the present invention relates to the use of the methyl acetate solvate of compound (I) for the production of the hydrate, for example by subjecting it to conditions, such as an elevated temperature and/or humidity which facilitate the loss of methyl acetate and attracting water.

[2] = Humidity-controlled (humidity-resolved) XRPD in a humidity chamber; settings: for time until transformation into the dihydrate at 95% relative humidity: sample held at 95% r.h.
Procedure: When humidity-controlled XRPD was performed at 25 and 40° C., widely identical results were obtained.
Exposure to elevated humidity causes transformation to the dihydrate as determined with humidity-controlled XRPD performed at 25° C. […] Phase 1 transformed into the dihydrate after about 15 min at 95%, which in turn changed to phase 2 after about 40 min at 2% r.h.
Exposure to elevated humidity causes transformation to the dihydrate as determined by humidity-controlled XRPD at 25° C. […] As a result phase 3 transformed into the hydrate after about 30 min at 95%, which in turn changed to phase 2 after about 30 min at 2% r.h.
Exposure to elevated humidity causes transformation to the dihydrate as determined by humidity-controlled XRPD. […] As a result phase 4 transformed into the dihydrate after about 15 min at 95%, which in turn changed to phase 2 after about 20 min at 2% r.h.
(§1) All X-ray powder diffraction was performed with Stoe Stadi-P transmission diffractometers using CuKα1 radiation (Lambda is 1.54060 Angström). For room temperature powder diffraction, linear position sensitive detectors were used while for temperature-resolved XRPD image plate position sensitive detectors (IP-PSDs) were used. Unless stated otherwise, X-ray powder diffraction was performed at room temperature. Dry samples were investigated in a flat preparation whereas suspensions were investigated in quartz glass capillaries. The measured data were evaluated and plotted with the Software WinXPOW V2.12.

[3] = Storage at 20° C. and 75% relative humidity
Procedure: Also storage of phase 1 at 20° C. and 75% relative humidity caused complete conversion to the dihydrate within 3 weeks. The rate of conversion correlates with the relative humidity.
(§2) Also storage of phase 3 at 20° C. and 75% relative humidity caused complete conversion to the dihydrate within 3 weeks. The rate of conversion correlates with the relative humidity. When suspended in water, complete transformation into the dihydrate was observed almost immediately (<10 min).
Also storage of phase 4 at 20° C. and 75% relative humidity caused complete conversion to the dihydrate within 3 weeks. The rate of conversion apparently correlates with the relative humidity.

[4] = Maturation experiments (slurry conversion) of suspensions; settings: for relative stability of the phase from maturation experiments: suspensions of phase mixtures in dry organic solvents, temperature range from 0 to 40° C.; for solid phase after maturation: 20° C., 35 days
Procedure: By maturation experiments (slurry conversion) at the given temperature the relative stability of the polymorphs of compound (I) and the hydrate was investigated.
The following maturation experiment was performed by stirring the suspension under the specified conditions, starting from the dihydrate. The sample was investigated by XRPD in suspension, after vacuum filtration as well as after drying over night at 40° C. in vacuum (<50 mbar). The isolated material was also investigated by DSC and TGA.
a) Maturation of 0.210 g dihydrate of compound (I) in 0.4 mL of water at 20° C. for 35 days. Similar, maturation of the dihydrate was done in water/methanol (vol/vol 1:1) and in water/ethanol (vol/vol 1:1).
The following maturation experiments were performed by stirring the suspension under the specified conditions and isolating the solid by vacuum filtration, starting from dihydrate of compound (I). The sample was investigated by XRPD in suspension, after vacuum filtration as well as after drying. The isolated material was also investigated by DSC and TGA.
(b) Maturation of 0.203 g of dihydrate of compound (I) in 1.2 mL of methanol at 20° C. for 35 days. (c) Maturation was also done as in (b) by using ethanol, 1-propanol or 2-propanol.
The following maturation experiments of suspensions of phase mixtures of the dihydrate of compound (I) and phases consisting of polymorphs 1, 3 and 4 were performed at 0, 20 and 40° C. The product was isolated by vacuum filtration and analyzed after drying.
e) Maturation of a mixture of 0.3 mg phase 1, 23.9 mg phase 3, 29.9 mg phase 4 and 27.9 mg of the dihydrate in 0.7 mL 2-propanol at 0° C. for 2 weeks. f) Maturation of a mixture of 0.3 mg phase 1, 27.2 mg phase 3, 18.1 mg phase 4 and 29.6 mg of the dihydrate in 2.0 mL 2-butanol at 0° C. for 2 weeks. g) Similar experiments as in e) and f) were done with corresponding mixtures of phase 1, phase 3, phase 4 and the dihydrate in 2-propanol and 2-butanol at 20° C. and at 40° C., respectively

[5] = Temperature-resolved XRPD, DSC and TGA on heating; settings: for solid-solid transition prior to melting: on heating
Procedure: In this temperature range, transformation to phase 3 was observed as determined by XRPD.
as §1
The thermogravimetric analyses were performed with a METTLER TGA851e (module TGA/SDTA851e/SF1100/042). 100 μl Al crucibles sealed with lid were used. The sample changer punches a pinhole into the lid immediately before the start of the measurement. The oven cell is purged with a nitrogen gas flow of about 50 mL/min. The measurements typically start with a hold time of about 25 min at 25° C., followed by heating of the sample with a rate of 10°/min.
All DSC measurements were performed with a Mettler DSC822e (module DSC822e/700/109/414935/0025). If not indicated differently, 40 μl Al crucibles with sealed lid and hole were used. All measurements were carried out in a nitrogen gas flow of 50 mL/minute. The heating rate was 10° C./minute unless indicated otherwise. Temperature and heat flow were calibrated via the melting peak of an indium reference

[6] = Dynamic vapor sorption (DVS) water vapor sorption and desorption isotherms; settings: 25° C.
Procedure: Moreover, the dihydrate may also be characterized by its DVS (dynamic vapor sorption) water vapor sorption and desorption isotherms measured at 25° C. as shown in FIG. 3. Before starting the sorption cycle the dihydrate sample is treated with dry nitrogen gas resulting in a transformation into phase 2 as shown by humidity resolved XRPD. […] A weight loss starts below 20% relative humidity and becomes strong below 10%, especially below 5%. The change in mass at low relative humidity is completely reversible and when the humidity increases again, the rehydration proceeds rapidly with small samples. However, for bulk samples rehydration of over-dried samples can take considerably longer and rehydration may require several days. Almost identical water sorption and desorption isotherms are observed at 40° C.
Moreover, phase 3 may also be characterized by its DVS (dynamic vapor sorption) water vapor sorption and desorption isotherms measured at 25° C. […] With decreasing humidity the dihydrate converts back at low humidity (below about 10% r.h.) into phase 2 (cycle 1, desorption). Phase 2 then converts into the dihydrate with increasing humidity and along the same isotherm it converts back with decreasing humidity into polymorph 2 (cycle 2, see also FIG. 3)
Moisture sorption/desorption isotherms were recorded on a DVS-1 from Surface Measurement Systems. […] Typical total measurement times for both cycles are about 20-30 hours.

[7] = Storage under usual storage conditions (25° C./65% relative humidity)
Excerpt: Moreover, the corresponding amorphous material is hygroscopic and the water content varies much stronger with the relative humidity compared to the dihydrate. This water uptake and variability in water content makes precise dosing during drug product manufacturing difficult. […] Accordingly, the crystalline dihydrate is therefore the preferred solid form for drug product manufacturing.

[8] = Drying of the dihydrate, retention of crystal structure; settings: dihydrate dried
Excerpt: In a further embodiment of the hydrate the water content is 11.4% (w/w). In a further embodiment the hydrate contains 2.0 molecules water per molecule (I). Although the hydrate phase typically contains about 10-12.5% water it can also occur with lower water content. The crystal structure of the hydrate remains even if the dihydrate is dried and the remaining water content is down to about 3%. Water uptake is reversible if humidity in the environment is raised again. The water content in the isolated product depends on the drying conditions used during work up of the hydrate after crystallisation.

[9] = Suspension in water, phase transformation
Procedure: as §2

[10] = listed as phase 4, hydrochloride
[11] = listed as phase 1, hydrochloride
[12] = listed as phase 3, hydrochloride

- stability of the solvate outside the mother liquor [1]: only moderately stable
SMILES: O=c1[nH]ccc2cc(OC3CCNCC3)ccc12 [methyl acetate solvate, 6-(Piperidin-4-yloxy)-2H-isoquinolin-1-one hydrochloride]

- time until transformation into the dihydrate at 95% relative humidity [2, 10]: about 15 min
- time to complete conversion to the dihydrate on storage [3]: ≤ 3 weeks
- relative stability of the phase from maturation experiments [4, 10]: only a metastable one
SMILES: O=c1[nH]ccc2cc(OC3CCNCC3)ccc12 [polymorph 4, 6-(Piperidin-4-yloxy)-2H-isoquinolin-1-one hydrochloride]
- solid-solid transition prior to melting [5, 10]: No transformation into another crystalline phase 1, 2 or 3; also recorded: melted without preceding solid-solid transitions

- relative humidity at which reversible transformation into phase 2 was observed ([2]; 25 and 40° C.): 2%
- time until the dihydrate changed to phase 2 at 2% r.h. ([2]; sample held at 2% r.h., hydrochloride dihydrate): about 30 min
- relative humidity below which the dihydrate converts into phase 2 ([6]; cycle 1, desorption): below 10%
- relative humidity below which weight loss starts ([6]; desorption cycle): below 20%
- hygroscopicity / water content as a function of relative humidity ([6]; hydrochloride dihydrate): quite constant water content
- water content in the desorption cycle ([6]; relative humidities between 95% and 20%): almost constant
- stability under usual storage conditions [7]: stable for more than two years
- decomposition on storage ([7]; more than two years): no detectable decomposition
- solid phase after maturation ([4]; 2-butanol, after drying): Polymorph 4 was obtained
- solid phase after maturation ([4]; methanol, ethanol, 1-propanol or 2-propanol): polymorph 3 was obtained
- solid phase after maturation ([4]; water, water/methanol (1:1) or water/ethanol (1:1)): remained as dihydrate
- temperature below which the form is stable [5]: below 90 °C
- temperature at which transformation to phase 3 starts ([5]; temperature-resolved XRPD, on heating with loss of water): about 90 °C
- remaining water content down to which the crystal structure of the hydrate remains [8]: about 3%
SMILES: O=c1[nH]ccc2cc(OC3CCNCC3)ccc12 [dihydrate, 6-(Piperidin-4-yloxy)-2H-isoquinolin-1-one hydrochloride dihydrate]

SMILES: O=c1[nH]ccc2cc(OC3CCNCC3)ccc12 [polymorph 2, 6-(Piperidin-4-yloxy)-2H-isoquinolin-1-one hydrochloride]
- solid-solid transition prior to melting ([5]; listed as phase 2, hydrochloride): melted without preceding solid-solid transitions

- hygroscopicity / water content as a function of relative humidity ([6]; hydrochloride): hygroscopic
SMILES: O=c1[nH]ccc2cc(OC3CCNCC3)ccc12 [amorphous material, 6-(Piperidin-4-yloxy)-2H-isoquinolin-1-one hydrochloride]

- time until transformation into the dihydrate at 95% relative humidity ([2]; listed as Phase 1, hydrochloride): about 15 min
- relative stability of the phase from maturation experiments [4, 11]: only a metastable polymorph
SMILES: O=c1[nH]ccc2cc(OC3CCNCC3)ccc12 [polymorph 1, 6-(Piperidin-4-yloxy)-2H-isoquinolin-1-one hydrochloride]
- solid-solid transition prior to melting [5, 11]: melted without preceding solid-solid transitions; also recorded: No transformation into another crystalline phase

- time until transformation into the dihydrate at 95% relative humidity [2, 12]: about 30 min
- relative humidity above which the phase changed into the dihydrate ([6]; cycle 1, sorption): above 80%
- relative stability at low relative humidity ([4]; at and around room temperature, less than about 10% relative humidity): the most stable phase
- time to complete transformation into the dihydrate when suspended in water [9]: < 10 min
SMILES: O=c1[nH]ccc2cc(OC3CCNCC3)ccc12 [polymorph 3, 6-(Piperidin-4-yloxy)-2H-isoquinolin-1-one hydrochloride]
- relative stability of the phase from maturation experiments [4, 12]: the most stable anhydrous phase; also recorded: thermodynamically most stable anhydrous form
- solid-solid transition prior to melting [5, 12]: melted without preceding solid-solid transitions; also recorded: No transformation into another crystalline phase

- stability of the solvate on heating [5]: relatively stable
SMILES: O=c1[nH]ccc2cc(OC3CCNCC3)ccc12 [1,4-dioxane solvate, 6-(Piperidin-4-yloxy)-2H-isoquinolin-1-one hydrochloride×0.5 1,4-dioxane solvate]
